This note sets out measurements from patent publication US6872745B2, “Antipicornaviral compounds and compositions, their pharmaceutical uses, and materials for their synthesis” (Agouron Pharmaceuticals, Inc., priority 2000, dated 2005).

A word on the CC50: it is the concentration that lowers cell viability or growth by half. A high value points to better tolerance by the cells. In general, pEC50 refers to the EC50 on a negative log10 scale, so that one unit is a factor of ten. A high value points to a small EC50.

Structures are written as SMILES. pEC50: −log10 of the molar value. Some results are limits rather than exact numbers.

The nature of data set [1]: Cytotoxicity in uninfected cells of the anticoxsackieviral assay (XTT). It is filed as cell-based. To be noted: human, H1-HeLa cells, table line CAV-21. On the procedure: (§1) Coxsackievirus types A-21 (CAV-21) and B3 (CVB3) were purchased from American Type Culture Collection (ATCC, Rockville, Md.). Virus stocks were propagated and antiviral assays were performed in H1-HeLa cells (ATCC). Cells were grown in minimal essential medium with 10% fetal bovine serum (Life Technologies, Gaithersburg, Md.). The ability of the compounds of this invention to protect cells against either CAV-21 or CVB3 infection was measured by the XTT dye reduction method. This method is described in Weislow et al., J. Natl. Cancer Inst. (1989), vol. 81, 577-586. H1-HeLa cells were infected with CAV-21 or CVB3 at a multiplicity of infection (m.o.i.) of 0.025 or 0.075, respectively, or mock-infected with medium only. H1-HeLa cells were plated at 4×10^4 cells per well in a 96-well plate and incubated with appropriate concentrations of the test compound. One day (CVB3) or two days (CAV-21) later, XTT/PMS was added to test plates and the amount of formazan produced was quantified spectrophotometrically at 450/650 nm. The EC50 was calculated as the concentration of compound that increased the formazan production in compound-treated, virus-infected cells to 50% of that produced by compound-free, uninfected cells. […] The therapeutic index (TI) was calculated by dividing the CC50 by the EC50.
(Tetrazolium dyes change colour on reduction, which living cells bring about.)

The test system of the next data set is H1-HeLa cells. The experiment in a line: Cytotoxicity in mock-infected cells of the antirhinoviral assay (XTT). It is filed as cell-based. The essentials: (§2)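 H1-HeLa cells infected with HRV (HRV-14 at m.o.i. 0.13) or mock-infected, incubated with compound for two days; protection read by XTT/PMS formazan at 450/650 nm. EC50 is the concentration restoring formazan to 50% of mock-infected controls. CC50 is from mock-infected cells, and TI = CC50/EC50.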

Test in data set [2]: as above
It is filed as cell-based. As to conditions: human, H1-HeLa cells, table line HRV-14. The procedure, abridged:
as §2

The next data set concerns CAV-21. As to the kind of experiment: Anticoxsackieviral cell culture assay (H1-HeLa, XTT). In kind it is cell-based, Coxsackievirus type A-21. As to conditions: Coxsackievirus; CAV-21, H1-HeLa cells. The protocol: as §1
The subject of another data set is HRV-10. As to the kind of experiment: Antirhinoviral H1-HeLa cell culture assay (XTT cell protection). To be noted: Human rhinovirus sp., HRV10; HRV-10, H1-HeLa cells. It is filed as cell-based. On the procedure: In this cell protection assay, the ability of compounds to protect cells against HRV infection was measured by the XTT dye reduction method, which is described in Weislow et al., J. Natl. Cancer Inst. (1989), vol. 81, 577-586. H1-HeLa cells were infected with HRV-14 at a multiplicity of infection (m.o.i.) of 0.13 (virus particles/cell) or mock-infected with medium only. Infected or mock-infected cells were resuspended at 8×10^5 cells per ml, and incubated with appropriate concentrations of the compounds to be tested. Two days later, XTT/PMS was added to test plates and the amount of formazan produced was quantified spectrophotometrically at 450/650 nm. The EC50 value was calculated as the concentration of compound that increased the percentage of formazan production in compound-treated, virus-infected cells to 50% of that produced by compound-free, mock-infected cells. The 50% cytotoxic dose (CC50) was calculated as the concentration of compound that decreased the percentage of formazan produced in compound-treated, mock-infected cells to 50% of that produced by compound-free, mock-infected cells. The therapeutic index (TI) was calculated by dividing the CC50 value by the EC50 value.
All strains of human rhinovirus (HRV) for use in this assay were purchased from American Type Culture Collection (ATCC), except for HRV serotype-14 (produced from the infectious cDNA clone constructed by Dr. Robert Rueckert, Institute for Molecular Virology, University of Wisconsin, Madison, Wis.). HRV stocks were propagated and viral assays were performed in H1-HeLa cells (ATCC). Cells were grown in minimal essential medium with 10% fetal bovine serum, available from Life Technologies (Gaithersburg, Md.).

A further data set relates to EV 70. The experiment in a line: Anti-enteroviral cell culture assay (MRC-5, XTT). In kind it is cell-based, enterovirus type 70. As to conditions: Enterovirus D, MRC5; ENT-70, MRC-5 cells. The protocol: (§3) Echovirus type 11 (ECHO 11) was purchased from ATCC (Rockville, Md.). Virus stocks were propagated and antiviral assays were performed in MRC-5 cells (ATCC). Cells were grown in minimal essential medium with 10% fetal bovine serum (Life Technologies, Gaithersburg, Md.). The ability of the compounds of this invention to protect cells against ECHO 11 infection was measured by the XTT dye reduction method (Weislow et al., J. Natl. Cancer Inst. (1989), vol. 81, 577-586). MRC-5 cells were infected with ECHO 11 at an m.o.i. of 0.003 or 0.004, respectively, or mock-infected with medium only. Infected or uninfected cells were added at 1×10^4 cells per well and incubated with appropriate concentrations of compound. Four days later, XTT/PMS was added to test plates, and the amount of formazan produced was quantified spectrophotometrically at 450/650 nm. The EC50 was calculated as the concentration of compound that increased the formazan production in compound-treated, virus-infected cells to 50% of that produced by compound-free, uninfected cells. […] The therapeutic index (TI) was calculated by dividing the CC50 by the EC50. Activity of the compounds against enterovirus type 70 (EV 70) may be measured by the same assay as described above in this section. […]

The test system of the next data set is MRC-5 cells. The experiment in a line: Cytotoxicity in uninfected cells of the anti-echoviral/anti-enteroviral assay (XTT). In kind it is cell-based. To be noted: table line ENT-70. The protocol:
as §3

Test in data set [3]: as above
As to conditions: human, MRC-5 cells, table line ECHO-11. In kind it is cell-based. The protocol: as §3

In a further data set the test system is ECHO 11. The experiment in a line: Anti-echoviral cell culture assay (MRC-5, XTT). To be noted: Enterovirus B, MRC5; ECHO-11, MRC-5 cells. In kind it is cell-based, Echovirus type 11. The protocol: as §3
Data set [4] addresses T1, rhinovirus 3C protease, serotype 14 (Human rhinovirus 14, UniProt P03303).
T1 construct: Recombinant rhinovirus 3C proteases; made in house
As to the kind of experiment: Inhibition of rhinovirus 3C protease (FRET assay, enzyme start). In kind it is biochemical. To be noted: HRV-14 3C protease, progress curves, read-out: Kobs/I. The procedure, abridged:
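Recombinant serotype 14 3C protease (50-100 nM) with ~1 μM DABCYL-GRAVFQGPVG-EDANS FRET substrate in 50 mM tris pH 7.6, 1 mM EDTA, 2% DMSO. Reactions started by enzyme addition; kobs/[I] taken from fluorescence-increase progress curves.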

For another data set, the system named is HRV-1A. As to the kind of experiment: Antirhinoviral H1-HeLa cell culture assay (XTT cell protection). To be noted: Rhinovirus A, HRV1A, H1-HeLa cells. In kind it is cell-based, human rhinovirus.
The test system of another data set is HRV-14. The description is as above. It is filed as cell-based, human rhinovirus. As to conditions: Rhinovirus B, HRV14, H1-HeLa, HRV-14, H1-HeLa cells. The procedure, abridged: as §2

T1 sequence (P03303 1538-1719): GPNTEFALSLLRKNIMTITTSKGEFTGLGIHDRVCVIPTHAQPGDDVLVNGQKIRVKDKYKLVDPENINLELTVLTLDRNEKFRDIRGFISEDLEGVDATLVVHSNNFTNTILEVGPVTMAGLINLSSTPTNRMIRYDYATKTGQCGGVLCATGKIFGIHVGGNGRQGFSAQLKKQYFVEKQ

As for `CCOC(=O)/C=C/[C@H](C[C@@H]1CCNC1=O)NC(=O)[C@H](Cc1ccccc1)NC(=O)c1ccc(-c2cccc3ccccc23)[nH]1` [Compound 25, 4S-{2S-[(5-Naphthalen-1-yl-1H-pyrrole-2-carbonyl)-amino]-3-phenyl-propionylamino}-5-(2-oxo-pyrrolidin-3S-yl)-pent-2-enoic acid ethyl ester], the CC50 at 2 days in data set [1] and in [2] was above 10 µM throughout. In addition, the CC50 in the data set on H1-HeLa cells (table line HRV-1A), in the data set on H1-HeLa cells (table line HRV-10) and with MRC-5 cells was above 10 µM throughout. In addition, the pEC50 in the data set with CAV-21 was 6.70; in the data set on HRV-10 it was 6.83; in the data set with EV 70 it was 8.52; with ECHO 11 it was 7.36; in the data set with HRV-1A it was 7.05; in the data set on HRV-14, 7.47. In data set [3], the CC50 at 4 days is above 10 µM. Besides, the kinact/KI in data set [4] is 690000 M⁻¹ s⁻¹.
